# Measurements published in patent EP0657160A1, “Oral composition for desensitising sensitive teeth” (UNILEVER N.V., priority 1993, dated 1995).
# Structures can show the parent of a compound that is named as a salt. Where two headings read alike, the source gives them in different places.
# Tested on: spinal nerve roots of the cauda equina
# Test: Compound nerve action potentials (CAPs) recorded in vitro from isolated spinal nerve roots
# Parameters: species or system rats
# Settings: for IC50: K+ concentration read from the dose-response curves, read-out: 50% reduction of the CAP
# Method: Using the method as described in J. Physiol 275, (1978), pages 177-189, experiments were carried out in vitro on spinal nerve roots of the cauda equina dissected from killed rats. Compound nerve action potentials (CAPs) were recorded from the nerves which were placed in a bath incorporating stimulating and recording electrodes and analyzed with MacLab Scope. Kreb's solutions containing various potassium ion concentrations were applied for 5 minutes to an isolated central portion of the nerve between the two sets of electrodes. With all potassium salts tested, the amplitude and area of the CAPs were reduced in a dose-dependent manner by test solutions containing 8 mM K⁺ or more. "Mean INT" in the table is the mean integrated CAP, expressed as a percentage of the control response, i.e. the response obtained with Krebs' solution containing 4mM K⁺. There were no differences in the results for CAP peak amplitudes and integrated CAPs.
# Wilcoxons' Sum of Ranks test was used to compare the % of control I-CAP values obtained after 5 min exposure to the different K⁺ salts at equivalent concentrations.
# [1] = [K+] 8 mM, applied for 5 minutes, mean integrated CAP as percentage of control response (Krebs' solution containing 4mM K+)
# [2] = [K+] 16 mM, applied for 5 minutes, mean integrated CAP as percentage of control response (Krebs' solution containing 4mM K+)
# [3] = [K+] 24 mM, applied for 5 minutes, mean integrated CAP as percentage of control response (Krebs' solution containing 4mM K+)
# [4] = [K+] 32 mM, applied for 5 minutes, mean integrated CAP as percentage of control response (Krebs' solution containing 4mM K+)
# [5] = [K+] 64 mM, applied for 5 minutes, mean integrated CAP as percentage of control response (Krebs' solution containing 4mM K+)
Compound,IC50 [mM],mean INT.(%) [1] [%],mean INT.(%) [2] [%],mean INT.(%) [3] [%],mean INT.(%) [4] [%],mean INT.(%) [5] [%],"effect on CAP compared with potassium oxalate (16-64 mM K+, p < 0.05)","activity at 8000 µM (Rattus norvegicus, 5 min, [K+] 8 mM, applied for 5 minutes, mean integrated CAP as percentage of control response (Krebs' solution containing 4mM K+), read-out: mean INT.(%)) [%]","activity at 16000 µM (Rattus norvegicus, 5 min, [K+] 16 mM, applied for 5 minutes, mean integrated CAP as percentage of control response (Krebs' solution containing 4mM K+), read-out: mean INT.(%)) [%]","activity at 24000 µM (Rattus norvegicus, 5 min, [K+] 24 mM, applied for 5 minutes, mean integrated CAP as percentage of control response (Krebs' solution containing 4mM K+), read-out: mean INT.(%)) [%]","activity at 32000 µM (Rattus norvegicus, 5 min, [K+] 32 mM, applied for 5 minutes, mean integrated CAP as percentage of control response (Krebs' solution containing 4mM K+), read-out: mean INT.(%)) [%]","activity at 64000 µM (Rattus norvegicus, 5 min, [K+] 64 mM, applied for 5 minutes, mean integrated CAP as percentage of control response (Krebs' solution containing 4mM K+), read-out: mean INT.(%)) [%]",IC50 (Rattus norvegicus) [mM]
"[Cl-].[K+] [KCl, potassium chloride]",17.8,98,59,13,1,0,–,–,–,–,–,–,–
"O=[N+]([O-])[O-].[K+] [KNO₃, potassium nitrate]",17.4,91,54,17,2,0,–,–,–,–,–,–,–
"O=C(O)C(O)C(O)C(=O)O (stereo not shown) [K₂Tartrate, dipotassium tartrate]",–,–,–,–,–,–,significantly greater,83,15,2,1,1,11.6
potassium oxalate [K₂Oxalate],14.3,84,42,11,3,1,–,–,–,–,–,–,–
